Values of other authors, collected in article PMC5073354, “Direct and indirect mechanisms of KLK4 inhibition revealed by structure and dynamics” (Scientific Reports, 2016).

What was measured:
Factor VIIa = conditions: FVIIa not bound to tissue factor
Description: Kallikreins are proteases that perform catalysis in organs with high zinc concentrations. The KLK4 inactivation by nickel described in this work is also proposed to apply to zinc binding to the same […]/[…] site[23]. A molecular understanding of zinc-mediated inhibition of members of the kallikrein family is emerging with three types of inhibition seen[41]. […] This is proposed to inhibit activity by […][42]. Second, zinc binding to residues in loop IV (also known ...

KLK4 [1] = conditions: library of tetrapeptide pNA substrates with invariant P1 Arg
Description: We previously tested the amidolytic activity of KLK4 against a focused library of synthetic tetrapeptide substrates with an invariant P1 Arg[13]. […] To investigate the structural basis for increased potency, we solved the crystal struct ...

matriptase = test system: matriptase
Description: (§1) Since the trypsin-SFTI-1 and matriptase-SFTI-1 protease/inhibitor complexes have been characterized by X-ray crystallography, a structural context is available to dissect relative potencies.

trypsin = test system: trypsin
Description: as §1

KLK4 [2] = test system: KLK4
Description: Since the trypsin-SFTI-1 and matriptase-SFTI-1 protease/inhibitor complexes have been characterized by X-ray crystallography, a structural context is available to dissect relative potencies. […] To examine the interaction between KLK4 and inhibitor we determined the X-ray crystal structure of a KLK4-SFTI-1 complex to 1.0 Å resolution. The inhibitor structure is well-resolved except for missing density in the backbone of Pro13 and the side chain of Asp14. The contact β-sheet of SFTI-1 has multiple interactions with the KLK4 active site, including the P1 Lys5 inserting into the S1 pocket of KLK4 (Fig. 1B). || When comparing the structure of SFTI-1 in the context of trypsin, matriptase and KLK4, differences in the interface correlate to the potency of inhibition. […] Comparison of the structures provides arguments to support this lowered inhibition. SFTI-1 has less buried surface area and fewer interactions with KLK4 than with either trypsin or matriptase (Table S1). SFTI-1 behaves as a Laskowski inhibitor, interacting with its targets following the classi ... || (+ 1 further places)

KLK4 [3] = conditions: ion binding to residues more than 20 Å from the active site
Description: To gain more insight into this mode of inhibition, we crystallized KLK4 under identical conditions but in the absence of PABA inhibitor.

With `[Zn+2]` [zinc] as the molecule, how does the “inhibition of FVIIa by zinc (in words)” value (Factor VIIa) read?
Its value is “is inhibited by zinc”.

Which “amidolytic activity of KLK4 for substrate (in words)” value (KLK4 [1]) does the source give for “FVQR-p-nitroanilide [FVQR-p-nitroanilide (pNA)]” here?
Its value is “highest activity”.

With “1GRCTKSIPPICFPD14 (bicyclic or more) [SFTI-1, sunflower trypsin inhibitor-1, 14 amino acid bicyclic peptide; backbone cyclization coupled with an intramolecular disulfide linkage]” as the molecule, how does the “inhibition of matriptase (in words)” value (matriptase) read?
Its value is “inhibit KLK4 in addition to trypsin and matriptase”.

And the “inhibition of trypsin (in words)” value (trypsin)?
The value was “inhibit KLK4 in addition to trypsin and matriptase”.

What about the “rank of potency, KLK4 versus trypsin and matriptase (in words)” value (KLK4 [2]; discrepancy in reported SFTI-1 inhibition constants (ref 12, 26, 27)) of the same molecule?
Its value is “KLK4 is thought to be the least potently inhibited”.

What about the “inhibition of KLK4 (in words)” value (KLK4 [2]; proteolytic activity of KLK4) of the same molecule?
The value was “potently inhibits KLK4 proteolytic activity”.

With `[Ca+2]` [calcium] as the molecule, how does the “reversal of zinc inhibition of FVIIa (in words)” value (Factor VIIa; zinc-inhibited) read?
The value was “can reverse this inhibition with calcium”.

With `[Ni+2]` [Ni^2+, nickel] as the molecule, how does the “inhibition of KLK4 by metal (in words)” value (KLK4 [3]) read?
The value was “KLK4 can be inhibited”.
